From ChEMBL document CHEMBL1125524, “Adenosine A1 antagonists. 2. Structure-activity relationships on diuretic activities and protective effects against acute renal failure” (J Med Chem, 1992) come the findings set out here.

In assay [1] the test system is Rattus norvegicus. The assay can be described thus: Serum creatinine concentration measured after intraperitoneal administration of 10 mg/kg of compound to rats(vehicle 2.13+/-0.27). It is filed as functional.
The test system of assay [2] is Rattus norvegicus. The assay can be described thus: Urea nitrogen concentration measured after intraperitoneal administration of 1 mg/kg of compound to rats(vehicle 120.9+/-23.3). It is filed as functional.
Assay [3] deals with Rattus norvegicus. Put plainly: Effect on urinary excretion potassium and sodium after oral administration of 25 mg/kg to rats(potassium and sodium excretion in control rat is 0.146+/-0.017). It is filed as functional, Urine.
The subject of assay [4] is Rattus norvegicus. Put plainly: Ratio of urinary excretion value (urinary volume) in treated rats to that in control rats, at a peroral dose of 25 mg/Kg. It is filed as functional, Urine.
Assay [5] has as its system Rattus norvegicus. The assay can be described thus: Ratio of urinary excretion value (Na+ concentration) in treated rats to that in control rats, at a peroral dose of 25 mg/Kg. It is filed as functional, Urine.
The test system of assay [6] is Rattus norvegicus. Put plainly: Ratio of urinary excretion value (urinary volume) in treated rats to that in control rats, at a peroral dose of 1.6 mg/Kg. In kind it is functional, Urine.
Assay [7] concerns Rattus norvegicus. Put plainly: Percent inhibition of Urea nitrogen by the compound given as ratio of UN value in treated to vehicle treated ones after intraperitoneal administration of 1 mg/kg of compound to rats(vehicle 120.9+/-23.3). In kind it is functional. To be noted: ip.
For assay [8], the system named is Rattus norvegicus. Put plainly: Oral diuretic activity was measured after oral administration of 25 mg/kg to rats(control volume is 0.96+/-0.20). In kind it is functional, Urine.
The species entered for assay [9] is Rattus norvegicus. In kind it is functional, Urine. Particulars: dose 1.6 mg/kg; route oral.
Assay [10] relates to Rattus norvegicus. Put plainly: Percent inhibition of serum creatinine by the compound given as ratio of Cr value in treated to vehicle treated ones after intraperitoneal administration of 1 mg/kg of compound to rats(vehicle 3.06+/-0.68). It is filed as functional. To be noted: ip.
The subject of assay [11] is Rattus norvegicus. Put plainly: Effect on urinary excretion potassium and sodium after oral administration of 1.6 mg/kg to rats(potassium and sodium excretion in control rat is 0.173+/-0.016). It is filed as functional, Urine.
Assay [12] has as its system Rattus norvegicus. Put plainly: Percent inhibition of serum creatinine by the compound given as ratio of Cr value in treated to vehicle treated ones after intraperitoneal administration of 10 mg/kg of compound to rats(vehicle 2.13+/-0.27). It is filed as functional. Particulars: ip.
Assay [13] relates to Rattus norvegicus. Put plainly: Ratio of urinary excretion value (Na+ concentration) in treated rats to that in control rats, at a peroral dose of 1.6 mg/Kg. In kind it is functional, Urine.
Assay [14] has as its target T1, Adenosine A2 receptor (Rattus norvegicus, UniProt P29276+P30543).
For assay [15], the system named is Rattus norvegicus. The assay can be described thus: Serum creatinine concentration measured after intraperitoneal administration of 1 mg/kg of compound to rats(vehicle 3.06+/-0.68). It is filed as functional.
The test system of assay [16] is Rattus norvegicus. Put plainly: Ratio of sodium ion/potassium ion concentration in treated rats to that in control rats, at a peroral dose of 1.6 mg/Kg. In kind it is functional.
The test system of assay [17] is Rattus norvegicus. The assay can be described thus: Ratio of sodium ion/potassium ion concentration in treated rats to that in control rats, at a peroral dose of 25 mg/Kg. In kind it is functional.
Assay [18] relates to Rattus norvegicus. Put plainly: Oral diuretic activity was measured after oral administration of 1.6 mg/kg to rats(control volume is 0.96+/-0.09). In kind it is functional, Urine.
Assay [19] has as its system Rattus norvegicus. The assay can be described thus: Serum creatinine concentration measured after intraperitoneal administration of 1 mg/kg of compound to rats(vehicle 3.62+/-0.52). It is filed as functional.
Assay [20] has as its system Rattus norvegicus. The assay can be described thus: Effect on urinary excretion potassium and sodium after oral administration of 1.6 mg/kg to rats(potassium and sodium excretion in control rat is 0.147+/-0.015). It is filed as functional, Urine.
Assay [21] has as its system Rattus norvegicus. Put plainly: Urea nitrogen concentration measured after intraperitoneal administration of 10 mg/kg of compound to rats(vehicle 129.1+/-14.5). In kind it is functional.
The subject of assay [22] is Rattus norvegicus. The assay can be described thus: Urea nitrogen concentration measured after intraperitoneal administration of 1 mg/kg of compound to rats(vehicle 105.2+/-14.9). It is filed as functional.
Assay [23] relates to Rattus norvegicus. Put plainly: Serum creatinine concentration measured after intraperitoneal administration of 10 mg/kg of compound to rats(vehicle 3.93+/-0.45). It is filed as functional.
In assay [24] the target is T1, Adenosine A2 receptor. The source holds these as a separate data set.
Description: Binding affinity towards adenosine A2 receptor in rat striatal membranes using N-[3H]-ethyladenosin-5''-uronamide as radioligand
Assay [25] has as its system Rattus norvegicus. The assay can be described thus: Serum creatinine concentration measured after intraperitoneal administration of 10 mg/kg of compound to rats(vehicle 2.89+/-0.30). It is filed as functional.
For assay [26], the system named is Rattus norvegicus. Put plainly: Urea nitrogen concentration measured after intraperitoneal administration of 10 mg/kg of compound to rats(vehicle 93.6+/-8.6). In kind it is functional.
The subject of assay [27] is Rattus norvegicus. Put plainly: Percent inhibition of Urea nitrogen by the compound given as ratio of UN value in treated to vehicle treated ones after intraperitoneal administration of 10 mg/kg of compound to rats(vehicle 93.6+/-8.6). In kind it is functional. To be noted: ip.
Assay [28] deals with Rattus norvegicus. The assay can be described thus: Ratio of urinary excretion value (urinary volume) in treated rats to that in control rats, at a peroral dose of 12.5 mg/Kg. In kind it is functional, Urine.
In assay [29] the test system is Rattus norvegicus. The assay can be described thus: Ratio of urinary excretion value (Na+ concentration) in treated rats to that in control rats, at a peroral dose of 6.25 mg/Kg. It is filed as functional, Urine.
The test system of assay [30] is Rattus norvegicus. Put plainly: Oral diuretic activity was measured after oral administration of 12.5 mg/kg to rats(control volume is 0.94+/-0.03). In kind it is functional, Urine.
Assay [31] relates to Rattus norvegicus. Put plainly: Ratio of urinary excretion value (Na+ concentration) in treated rats to that in control rats, at a peroral dose of 12.5 mg/Kg. In kind it is functional, Urine.
In assay [32] the test system is Rattus norvegicus. The assay can be described thus: Effect on urinary excretion potassium and sodium after oral administration of 12.5 mg/kg to rats(potassium and sodium excretion in control rat is 0.175+/-0.014). It is filed as functional, Urine.
In assay [33] the test system is Rattus norvegicus. Put plainly: Percent inhibition of serum creatinine by the compound given as ratio of Cr value in treated to vehicle treated ones after intraperitoneal administration of 10 mg/kg of compound to rats(vehicle 2.89+/-0.30). It is filed as functional. To be noted: ip.
The subject of assay [34] is Rattus norvegicus. The assay can be described thus: Ratio of sodium ion/potassium ion concentration in treated rats to that in control rats, at a peroral dose of 12.5 mg/Kg. In kind it is functional.
The subject of assay [35] is Rattus norvegicus. The assay can be described thus: Ratio of urinary excretion value (urinary volume) in treated rats to that in control rats, at a peroral dose of 6.25 mg/Kg. It is filed as functional, Urine.

pKi: −log10 of the molar value. Bounds are passed on as bounds.

What is called inhibition in vivo is the relative decrease from the control value, in per cent. The term Ki denotes the dissociation constant of the complex between target and ligand, obtained from inhibition or displacement. As for `CCCn1c(=O)c2nc(C3C(C)(C)CCC3(C)C)[nH]c2n(CCC)c1=O`, the Cr in assay [1] came out at 1.43 mg/dL; in assay [15], 3.03 mg/dL. Also, the UN in [2] is 113.4 mg/dL. For the same compound, the Na in [3] was determined as 0.172 m equiv 6hr-1 100g-1; in assay [11], 0.213 m equiv 6hr-1 100g-1. The T/C in [4] stood at 1.4; in assay [5] it was 1.18; in [6], 1.42; in assay [13] it was 1.23. The inhibition in vivo at 1 mg/kg in assay [7] was determined as 6%; in [10], 1%. The Urine volume amounted to 1.34 ml 6hr-1 100g-1 in assay [8] and 1.5 ml 6hr-1 100g-1 in assay [9]. The inhibition in vivo at 10 mg/kg in assay [12] was found to be 33%. For the same compound, the inhibition constant Ki in [14] is listed as more than 100000 nM. Also, the results for the “Na+/K+” value in assay [16] and in assay [17] were 1.12 and 1.21, respectively.

In general, pKi refers to the negative decadic logarithm of the Ki, by convention in mol/L. In [18], `Cn1c(=O)c2nc(C(C3CC3)C3CC3)[nH]c2n(C)c1=O` came in with a Urine volume of 0.87 ml 6hr-1 100g-1. In addition, the T/C in assay [6] was 0.91; in assay [13] it was 1.24. Also, the Cr in [19] was determined as 4.1 mg/dL; in assay [23], 1.78 mg/dL. In addition, the Na in assay [20] is 0.183 m equiv 6hr-1 100g-1. Besides, the UN in assay [21] came to 57.2 mg/dL; in [22] it was 121.4 mg/dL. The pKi in [14] was 5.57. Moreover, the “Na+/K+” value in assay [16] is listed as 1.18.

`Nc1nc2ccc(Cl)cc2c2nc(-c3ccco3)nn12` [CGS-15943]: the values for the T/C in assay [4] and in [5] were 1.02 and 1.46, respectively. The inhibitory constant (Ki) in assay [24] amounted to 3.3 nM; in assay [14], 0.73 nM. The “Na+/K+” value in assay [17] is given as 1.07.

Turning to `CCCn1c(=O)c2nc(-c3ccc(S(=O)(=O)N(C)CCN(C)C)cc3)[nH]c2n(CCC)c1=O`, in [25], the Cr turned out to be 2.31 mg/dL. The compound also returned a UN in assay [26] of 62.6 mg/dL. In addition, the inhibition in vivo at 10 mg/kg turned out to be 33% in [27] and 20% in assay [33]. The pKi in assay [24] was 7.81; in assay [14], 7.59. Moreover, the T/C came to 1.64 in [28], 1.06 in assay [29], 1.78 in assay [31] and 1.17 in [35]. In assay [30], this compound yielded a Urine volume of 1.54 ml 6hr-1 100g-1. In assay [32], the Na was 0.21 m equiv 6hr-1 100g-1. Further, in [34], the “Na+/K+” value stood at 1.56.
